Source: patent US20220119399A1, “COMPOUNDS AND COMPOSITIONS THAT CAUSE MYCN AND/OR CMYC DEGRADATION AND METHODS OF USE THEREOF” (THE TRUSTEES OF COLUMBIA UNIVERSITY IN THE CITY OF NEW YORK, priority 2018, published 2022)
“Also recorded” adds a separate entry of the source.

Columns and labels:
[1] = Solubility; type: physicochemical
[2] = test system: MYC targets gene set; assay: GSEA of Cancer Hallmarks gene sets from PLATE-Seq profiles; type: cell-based, human; conditions: SK-N-Be2 cells, 3.3 μM and 10 μM, 6 h and 24 h
Excerpt: We next performed gene set analysis using PLATE-Seq expression profiling by binning transcripts according to the Cancer Hallmarks gene sets found at the molecular signatures database. Curated by the Broad Institute, these fifty hallmark pathway sets represent well defined cancer processes or states associated with cancer malignancies. […] Given that isopomiferin disrupted the MycN^AMP regulatory module, it was expected that this target would be suppressed by isopomiferin. We sought to understand how the compound is affecting cells by assessing whether any other pathways are affected by the compound. […] E2F […] regulators act in a feedback loop with MycN and also regulate cell cycle progression (Strieder and Lutz 2003; Li et al. 2014), so this is an interesting finding that will be further investigated. MycN enables cancer cells to evade the immune system by suppressing antigens that can act as immune attractants necessary for detection and destruction of cancer cells (Brandetti et al. 2017; Topper et al. 2017). It is possible that enrichment of the “Inflammatory Response” gene set is a result of desuppression of these targets as a result of MycN inhibition.
We sought to investigate biological pathways affected by isopomiferin by performing pathway enrichment analysis on a set of 50 hallmarks of cancer. […]

[3] = test system: MYCN MR signature; assay: RNASeq with VIPER analysis of the MYCN MR signature; type: cell-based, human; conditions: SK-N-Be2 cells
Method: To uncover changes in gene expression that underpin responses to pomiferin and isopomiferin, RNASeq analysis of SK-N-Be2 cells was performed following treatment with the two active prenylated isoflavonoids as well as a null analog that served as a negative control. SK-N-Be2 cells were treated with either 3 μM or 10 μM of isopomiferin or pomiferin and sampled after 3 h and 6 h. […] By comparing the active to the null analogs, downstream analyses can focus on changes in gene expression associated with the MYCN signature.
Intriguingly, only six MRs were suppressed by pomiferin and isopomiferin, while being unaffected by the null analog dimethyl pomiferin (FIG. 20B).

[4] = test system: SK-N-Be2 cells; type: in vitro ADME, human; conditions: human, 20 μM
Method: In brief, SK-N-Be2 cells were seeded at 400 k cells/well in 6 w plates and incubated overnight. The following day, compounds were added to wells at indicated concentrations, with DMSO-only control added to non-treated wells. Following treatment for the indicated time periods, cells were trypsinized, rinsed twice with cold PBS to remove media, pelleted by centrifugation, and frozen at −20° C. To extract compounds, frozen pellets were resuspended in 150 μL of acetonitrile, sonicated for 2′, and centrifuged at 1400×g for 75′ at 4° C. Supernatant was collected and analyzed by LC-MS using a system comprised of a Thermo Scientific Dionex Ultimate 3000 and a Bruker amaZon SL equipped with an electrospray ionization source controlled by a Bruker Hystar 3.2. Compounds were separated by injecting 20 μL of supernatant onto an Agilent Eclipse Plus C18 column (2.1×50 mm, […]) maintained at 20° C., with the flow rate set at 400 μL/min. Initial flow conditions were 60% solvent A (MilliQ H2O, 0.1% acetic acid), and 40% solvent B (HPLC-grade MeOH, 0.1% acetic acid). Solvent B was raised to 60% over 0.25 min and to 70% by 6.75 min. Solvent B was raised to 95% by 7 min and lowered back to 40% by 8 minutes; total run time was 9 min (Bos et al. 2019).

[5] = target: T1, CK2a2 (Homo sapiens, UniProt P19784); assay: Cell-free biochemical CK2a2 kinase assay
T1 construct: purchased Reaction Biology Corporation (Malvern, Pa.)
T1 sequence (P19784 whole entry): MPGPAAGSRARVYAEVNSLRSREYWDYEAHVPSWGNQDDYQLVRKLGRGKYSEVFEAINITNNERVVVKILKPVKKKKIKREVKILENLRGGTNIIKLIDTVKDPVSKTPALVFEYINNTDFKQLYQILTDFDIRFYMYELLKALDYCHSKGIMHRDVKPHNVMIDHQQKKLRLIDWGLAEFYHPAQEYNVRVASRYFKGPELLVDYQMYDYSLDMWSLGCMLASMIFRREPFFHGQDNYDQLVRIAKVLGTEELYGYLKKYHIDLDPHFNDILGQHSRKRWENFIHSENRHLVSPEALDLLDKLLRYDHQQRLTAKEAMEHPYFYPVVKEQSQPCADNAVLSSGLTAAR
Method: Cell-free biochemical kinase assays were performed at Reaction Biology Corporation (Malvern, Pa.). In brief, kinase substrates were diluted into reaction buffer containing 20 mM Hepes (pH 7.5), 10 mM MgCl2, 1 mM EGTA, 0.02% Brij35, 0.02 mg/ml BSA, 0.1 mM Na3VO4, 2 mM DTT, 1% DMSO. Purified protein (CK2a1, CK2a2, or mTOR) was added to the substrate solution and gently mixed. Test compounds were diluted from 10 mM DMSO stock solutions into the reaction buffer using an Echo550 acoustic dispenser, followed by incubation at RT for 20 min. 33P-ATP (10 μCi/μL) was added to reaction mixture, following incubation for 2 h at RT. Reactions were then spotted onto P81 ion exchange paper and kinase activity was detected by filter binding method.

[6] = test system: cancer cell lines and non-transformed cells; conditions: Darji et al. 2013; Son et al. 2007; cited from earlier work

Row | Structure (SMILES) | solubility [1] | Cancer Hallmarks gene set enrichment (MYC Targets, E2F Targets, G2M Checkpoint) [2] | effect on the MYCN MR signature (VIPER of RNASeq) [3] | amount of compound detected in cell sample [4] [ng] | CK2a2 kinase activity [5] | potency in transformed cells relative to non-transformed cells [6] [fold]
1 | CC1(C)C=Cc2c(c3c(c4c(=O)c(-c5ccc(O)c(O)c5)coc24)OC(C)(C)CC3)O1 [isopomiferin] | not soluble in aqueous buffers | suppressed the MYC targets gene set; also recorded: suppressed by isopomiferin treatment in a time- and dose-dependent manner | – | – | – | –
2 | CC(C)=CCc1c2c(c3occ(-c4ccc(O)c(O)c4)c(=O)c3c1O)C=CC(C)(C)O2 [pomiferin] | – | – | had the strongest effect on the MYCN MR signature | ~300 | inhibiting both isoforms equally in a concentration-dependent manner | > 10
